One molecule from patent US9301961B2, “Autoimmune and inflammatory disorder therapy” (Katholieke Universiteit Leuven, K.U. Leuven R&D, priority 2011, dated 2016) can be followed below.

Structures are written as SMILES. pIC50: −log10 of the molar value.

The target of one experiment is T1, PAK1 (Homo sapiens, UniProt Q13153).
T1 construct: made in house; host or cells: E. coli BL21-derived host (T7 phage) or HEK-293
Description: Kinase-tagged phage competition binding assay (qPCR), 382-kinase library.

The target of a further experiment is T2, ADCK3 (Homo sapiens, UniProt Q8NI60).
T2 construct: made in house; host or cells: E. coli BL21-derived host (T7 phage) or HEK-293
The experiment is described as above.

The next experiment addresses T3, PI4KA (PI4K alpha) (Homo sapiens, UniProt P42356).
T3 construct: purchased Invitrogen
The experiment in a line: Commercial kinase activity assay (Invitrogen, ADP TR-FRET). Format: biochemical. The following applies: 10 μM test compound. In general terms: TR-FRET usually uses a lanthanide donor and a delayed reading to cut background.

Experiment [1] relates to cardiac allograft rejection. The experiment in a line: Cardiac allograft transplantation model, treatment day -1 to day 30 (Examples 7 and 8). Format: in vivo, mice (C57BL/6 donor, Balb/c recipient). The following applies: Example 7.
Description: Inbreed C57BL/6 H-2b and Balb/c H-2d female mice, 8-10 weeks old, 20-25 g, were used as donor and recipient, respectively. Heterotopic heart transplantation was performed by implanting the donor heart on the neck of recipients using conventional microsurgery techniques. Graft beating was checked daily by inspection and palpation. Cessation of beating indicated graft rejection, which was confirmed by histological examination. Housing and all experimental animal procedures were approved by the Institutional Animal Care and Research Advisory Committee of the KU Leuven.
In another experiment the target is T4, YSK4 (Homo sapiens, UniProt Q56UN5).
T4 construct: made in house; host or cells: E. coli BL21-derived host (T7 phage) or HEK-293
T4 sequence (Q56UN5 1-1328): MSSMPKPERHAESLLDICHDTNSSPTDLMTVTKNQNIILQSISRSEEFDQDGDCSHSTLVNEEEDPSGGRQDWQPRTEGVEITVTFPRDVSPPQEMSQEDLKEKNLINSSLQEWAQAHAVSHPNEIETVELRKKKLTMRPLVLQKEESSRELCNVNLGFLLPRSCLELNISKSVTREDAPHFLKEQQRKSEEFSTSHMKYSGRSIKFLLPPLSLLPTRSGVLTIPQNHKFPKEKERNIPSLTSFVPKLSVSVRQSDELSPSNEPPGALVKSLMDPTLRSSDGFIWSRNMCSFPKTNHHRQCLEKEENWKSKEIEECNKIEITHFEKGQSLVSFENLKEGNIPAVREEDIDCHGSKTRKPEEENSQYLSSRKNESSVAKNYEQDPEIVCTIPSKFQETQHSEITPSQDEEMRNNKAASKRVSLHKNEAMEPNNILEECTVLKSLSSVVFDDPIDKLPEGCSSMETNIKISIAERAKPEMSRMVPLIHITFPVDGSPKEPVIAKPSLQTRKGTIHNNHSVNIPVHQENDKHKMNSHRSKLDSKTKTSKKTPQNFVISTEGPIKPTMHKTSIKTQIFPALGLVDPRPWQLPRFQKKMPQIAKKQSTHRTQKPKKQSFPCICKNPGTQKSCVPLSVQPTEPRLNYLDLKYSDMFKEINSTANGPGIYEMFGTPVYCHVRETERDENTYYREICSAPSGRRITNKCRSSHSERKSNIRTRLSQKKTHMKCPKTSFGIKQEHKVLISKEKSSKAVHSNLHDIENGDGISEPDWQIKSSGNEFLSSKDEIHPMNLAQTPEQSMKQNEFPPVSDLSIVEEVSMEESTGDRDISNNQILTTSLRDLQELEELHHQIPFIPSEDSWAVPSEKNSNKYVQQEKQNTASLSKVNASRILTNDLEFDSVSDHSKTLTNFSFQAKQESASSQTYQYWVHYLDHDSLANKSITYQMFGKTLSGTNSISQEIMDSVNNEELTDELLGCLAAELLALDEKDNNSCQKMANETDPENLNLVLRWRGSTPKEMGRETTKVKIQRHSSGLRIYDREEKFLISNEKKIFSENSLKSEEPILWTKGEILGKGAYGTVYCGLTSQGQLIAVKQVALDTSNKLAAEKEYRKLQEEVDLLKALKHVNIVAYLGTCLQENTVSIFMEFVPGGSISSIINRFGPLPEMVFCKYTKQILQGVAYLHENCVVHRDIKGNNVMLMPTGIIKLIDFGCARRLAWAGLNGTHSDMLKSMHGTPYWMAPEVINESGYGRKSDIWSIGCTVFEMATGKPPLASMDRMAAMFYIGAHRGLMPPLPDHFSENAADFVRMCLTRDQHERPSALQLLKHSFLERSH
Description: Kinase-tagged phage competition binding assay (qPCR), 382-kinase library. A general note: Real-time PCR tracks product formation cycle by cycle.

Setting [2] is: 10 μM compound, read-out: % Inhibition of substrate binding.
The mark [3] stands for this setting: stated for the 8 kinases of Table 1.

The term inhibition denotes the change of the read-out against control, counted positive when it falls. As a reminder, the pIC50 is −log10 of the IC50, conventionally taken in molar units. High values mean a low IC50, low ones a high IC50.

T2 sequence (Q8NI60 163-647): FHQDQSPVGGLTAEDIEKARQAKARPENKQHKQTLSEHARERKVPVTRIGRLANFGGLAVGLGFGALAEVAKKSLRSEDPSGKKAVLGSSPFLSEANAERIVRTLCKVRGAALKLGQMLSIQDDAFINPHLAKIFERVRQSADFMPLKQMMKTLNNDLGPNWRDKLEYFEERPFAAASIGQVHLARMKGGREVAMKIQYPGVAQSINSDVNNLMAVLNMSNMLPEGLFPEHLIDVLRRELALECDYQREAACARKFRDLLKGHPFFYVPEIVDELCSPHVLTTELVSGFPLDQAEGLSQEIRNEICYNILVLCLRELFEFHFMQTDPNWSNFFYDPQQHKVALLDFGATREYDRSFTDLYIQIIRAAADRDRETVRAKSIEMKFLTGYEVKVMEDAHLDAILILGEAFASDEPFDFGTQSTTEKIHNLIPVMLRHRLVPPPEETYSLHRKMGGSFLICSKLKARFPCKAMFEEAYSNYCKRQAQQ
T1 sequence (Q13153 whole entry): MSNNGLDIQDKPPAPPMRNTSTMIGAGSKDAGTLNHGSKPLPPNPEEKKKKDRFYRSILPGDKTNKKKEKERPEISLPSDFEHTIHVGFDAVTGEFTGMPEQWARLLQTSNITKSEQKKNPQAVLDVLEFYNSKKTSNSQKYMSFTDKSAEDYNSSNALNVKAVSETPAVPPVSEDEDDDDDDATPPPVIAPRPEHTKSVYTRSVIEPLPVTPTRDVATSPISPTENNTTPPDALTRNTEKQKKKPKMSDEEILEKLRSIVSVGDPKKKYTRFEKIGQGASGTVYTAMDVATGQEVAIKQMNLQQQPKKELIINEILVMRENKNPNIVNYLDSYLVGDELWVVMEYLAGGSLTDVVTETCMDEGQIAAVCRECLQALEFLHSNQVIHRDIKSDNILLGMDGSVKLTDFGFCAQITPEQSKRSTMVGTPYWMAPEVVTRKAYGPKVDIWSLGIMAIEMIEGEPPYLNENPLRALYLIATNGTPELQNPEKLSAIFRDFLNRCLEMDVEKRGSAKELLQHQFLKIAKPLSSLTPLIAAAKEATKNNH
T3 sequence (P42356 whole entry): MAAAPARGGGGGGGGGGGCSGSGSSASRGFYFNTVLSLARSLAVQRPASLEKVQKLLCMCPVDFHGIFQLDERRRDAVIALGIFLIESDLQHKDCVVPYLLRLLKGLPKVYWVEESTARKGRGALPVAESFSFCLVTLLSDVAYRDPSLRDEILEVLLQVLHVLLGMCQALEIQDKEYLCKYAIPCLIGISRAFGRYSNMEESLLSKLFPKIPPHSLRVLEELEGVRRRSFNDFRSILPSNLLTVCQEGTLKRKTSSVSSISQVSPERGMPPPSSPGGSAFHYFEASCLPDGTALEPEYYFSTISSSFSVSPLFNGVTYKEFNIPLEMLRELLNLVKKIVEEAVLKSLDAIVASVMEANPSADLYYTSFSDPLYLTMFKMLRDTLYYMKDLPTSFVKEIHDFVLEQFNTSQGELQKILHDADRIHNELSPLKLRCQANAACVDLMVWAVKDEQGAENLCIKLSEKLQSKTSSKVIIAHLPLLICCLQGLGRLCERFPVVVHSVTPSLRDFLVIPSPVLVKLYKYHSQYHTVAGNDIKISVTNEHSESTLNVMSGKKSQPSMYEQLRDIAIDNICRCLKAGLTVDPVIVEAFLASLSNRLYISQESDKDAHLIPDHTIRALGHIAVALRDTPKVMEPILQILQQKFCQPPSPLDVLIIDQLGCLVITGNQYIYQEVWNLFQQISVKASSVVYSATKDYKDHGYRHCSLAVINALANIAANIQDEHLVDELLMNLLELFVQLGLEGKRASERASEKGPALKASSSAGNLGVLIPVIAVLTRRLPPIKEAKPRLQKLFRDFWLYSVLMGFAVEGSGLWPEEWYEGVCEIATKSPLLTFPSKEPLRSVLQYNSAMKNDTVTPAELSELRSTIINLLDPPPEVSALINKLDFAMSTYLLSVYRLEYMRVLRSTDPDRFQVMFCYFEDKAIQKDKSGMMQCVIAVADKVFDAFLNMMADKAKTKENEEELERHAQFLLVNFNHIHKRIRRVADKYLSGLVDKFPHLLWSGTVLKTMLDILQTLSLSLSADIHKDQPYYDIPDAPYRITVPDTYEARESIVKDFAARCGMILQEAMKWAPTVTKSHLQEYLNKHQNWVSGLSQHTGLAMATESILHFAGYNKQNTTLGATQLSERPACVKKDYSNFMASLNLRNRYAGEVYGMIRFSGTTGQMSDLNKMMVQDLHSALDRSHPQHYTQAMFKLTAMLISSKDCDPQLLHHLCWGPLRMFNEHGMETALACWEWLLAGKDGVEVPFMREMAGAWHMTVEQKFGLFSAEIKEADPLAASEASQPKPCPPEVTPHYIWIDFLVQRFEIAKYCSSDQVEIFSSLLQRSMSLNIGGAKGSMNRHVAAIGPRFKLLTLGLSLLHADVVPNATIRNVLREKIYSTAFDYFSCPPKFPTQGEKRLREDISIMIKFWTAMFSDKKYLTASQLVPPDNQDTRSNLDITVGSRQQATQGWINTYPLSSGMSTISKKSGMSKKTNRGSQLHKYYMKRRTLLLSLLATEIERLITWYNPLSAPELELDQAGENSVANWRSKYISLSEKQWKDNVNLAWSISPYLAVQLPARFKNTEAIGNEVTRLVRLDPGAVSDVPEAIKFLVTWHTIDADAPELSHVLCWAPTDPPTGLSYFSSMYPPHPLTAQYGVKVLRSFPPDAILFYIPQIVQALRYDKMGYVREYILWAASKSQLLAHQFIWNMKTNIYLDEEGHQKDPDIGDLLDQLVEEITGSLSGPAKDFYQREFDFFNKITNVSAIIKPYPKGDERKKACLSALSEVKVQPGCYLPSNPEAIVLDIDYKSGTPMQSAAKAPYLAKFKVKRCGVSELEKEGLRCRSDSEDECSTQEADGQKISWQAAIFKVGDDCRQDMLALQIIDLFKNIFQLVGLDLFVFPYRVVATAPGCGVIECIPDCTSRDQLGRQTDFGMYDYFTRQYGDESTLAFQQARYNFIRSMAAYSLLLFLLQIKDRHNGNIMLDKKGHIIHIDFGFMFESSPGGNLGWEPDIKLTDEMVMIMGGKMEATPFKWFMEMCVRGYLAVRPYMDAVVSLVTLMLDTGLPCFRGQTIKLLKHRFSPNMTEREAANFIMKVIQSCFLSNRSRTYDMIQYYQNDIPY

In the case of `Nc1nc(N2CCN(C(=O)COc3ccc(Cl)cc3)CC2)c2nc(-c3cccnc3)sc2n1` [formula (1), 5-amino-7-[4-(4-chlorophenoxyacetyl)piperazin-1-yl]-2-(pyridin-3-yl)thiazolo[5,4-d]pyrimidine], the inhibition at 10 µM turned out to be 54% on PAK1 (setting [2]), 68% at ADCK3 (setting [2]) and 79% at YSK4 (setting [2]). In addition, the negative logarithm of the IC50 (pIC50) on PAK1 (setting [3]), at ADCK3 (setting [3]) and on YSK4 (setting [3]) was greater than 5.00 each time. The Kinase activity on PI4KA (PI4K alpha) is 99 percentage of control. Further, the “grafts surviving as long as treatment continued” value in experiment [1] (40 mg/kg daily gavage) was 3 out of 4. In addition, in experiment [1] (40 mg/kg daily gavage until day 30), the “graft function after withdrawal of the treatment” value is given as “continued beating after withdrawal of the treatment (up to 60 days)”.
